# From PubChem BioAssay AID504457 (Sanford-Burnham Center for Chemical Genomics, 2011)
# Calls of active or inactive are those of the source.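 The calls were made as follows: active = compounds with IC50 below 20 µM; inactive = the rest.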
# Molecular target: Type-1 angiotensin II receptor (Homo sapiens) (UniProt P30556)
# Assay: AT1 receptor antagonists, angiotensin II-stimulated, SAR follow-up, selectivity assay for APJ receptor antagonist project, cell-based, CHO-K1 AGTR1, beta-arrestin, luminescence, set 5 (AID 504457)
# Settings: CHO-K1 AGTR1 PathHunter beta-arrestin
# Chain of Type-1 angiotensin II receptor (Homo sapiens) (P30556 whole entry, looked up): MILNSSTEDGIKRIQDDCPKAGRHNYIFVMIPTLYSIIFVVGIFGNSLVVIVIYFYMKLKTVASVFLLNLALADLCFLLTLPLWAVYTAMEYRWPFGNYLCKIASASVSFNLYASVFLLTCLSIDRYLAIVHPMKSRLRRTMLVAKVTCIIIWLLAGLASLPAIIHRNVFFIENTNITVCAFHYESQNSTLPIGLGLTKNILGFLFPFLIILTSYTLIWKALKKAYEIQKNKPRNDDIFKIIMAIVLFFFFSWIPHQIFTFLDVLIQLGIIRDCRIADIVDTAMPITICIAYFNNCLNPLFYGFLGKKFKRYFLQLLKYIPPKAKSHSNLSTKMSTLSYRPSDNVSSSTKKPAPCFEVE
row,Compound,IC50
1,COc1ccc(C2CC3(CC(C)(C)NC(=S)N3)Oc3cc(O)cc(C)c32)cc1 (centres undefined),> 79 µM (inactive)
2,CC1(C)CC2(CC(c3ccc(F)cc3)c3ccc(O)cc3O2)NC(=S)N1 (centres undefined),inactive
3,C=CCOc1ccc(COc2ccccc2)cc1,> 79 µM (inactive)
4,C=CCOc1ccc(CSc2nccc(C)n2)cc1,> 79 µM (inactive)
5,Cc1cc(C)nc(SCc2cc(=O)c(O)co2)n1,> 79 µM (inactive)
6,COc1ccccc1NC(=O)CN1C(=O)C(=O)c2ccccc21,> 79 µM (inactive)
7,Cc1ccccc1C1CC2(CC(C)(C)NC(=S)N2)Oc2cc(O)c(Cl)cc21 (centres undefined),inactive
8,COc1ccc(C2CC3(CC(C)(C)NC(=S)N3)Oc3cc(OC(C)=O)cc(C)c32)cc1 (centres undefined),> 79 µM (inactive)
9,COc1cc(CSc2nc(C)cc(C)n2)ccc1O,> 79 µM (inactive)
10,CC(=O)Oc1cc2c(cc1Cl)C(c1ccccc1Cl)CC1(CC(C)(C)NC(=S)N1)O2 (centres undefined),> 79 µM (inactive)
11,C=CCOc1ccc(CSc2nc(C)cc(C)n2)cc1OC,> 79 µM (inactive)

# Second part, the compound after the results:
row,IC50,Compound
1,> 79 µM (inactive),Cc1ccnc(SCc2cc(=O)c(OC(=O)c3ccccc3)co2)n1
2,> 79 µM (inactive),Cc1ccnc(SCc2cc(=O)c(OC(=O)c3ccc(C#N)cc3)co2)n1
3,> 79 µM (inactive),Cc1ccc(C(=O)Oc2coc(CSc3ncccn3)cc2=O)cc1[N+](=O)[O-]
4,> 79 µM (inactive),N#Cc1ccc(C(=O)Oc2coc(CSc3ncccn3)cc2=O)cc1
5,inactive,Cc1cc(C)nc(SCc2cc(=O)c(OC(=O)c3cc([N+](=O)[O-])ccc3Cl)co2)n1
6,> 79 µM (inactive),O=c1cc(CSc2ncccn2)occ1O
7,> 79 µM (inactive),Cc1ccnc(SCc2cc(=O)c(OC(=O)c3ccc([N+](=O)[O-])cc3)co2)n1
8,> 79 µM (inactive),O=C(Oc1coc(CSc2ncccn2)cc1=O)c1ccc(Br)cc1
